Test results published in patent publication US20030100769A1, “Cyclic amidine compounds” (priority 2000, published 2003).

What follows are molecules tested against T1, α4β2 subtype of nicotinic acetylcholine receptors (Rattus norvegicus, UniProt P09483+P12390) (assay: Binding assay at α4β2 subtype of nicotinic acetylcholine receptors ([3H]-cytisine, rat brain membrane)).
T1 construct: examined using rat brain membrane obtained from whole homogenized brain; from tissue; host or cells: rat whole brain membranes (Fischer-344 male rats)
T1 sequence (P09483 31-630): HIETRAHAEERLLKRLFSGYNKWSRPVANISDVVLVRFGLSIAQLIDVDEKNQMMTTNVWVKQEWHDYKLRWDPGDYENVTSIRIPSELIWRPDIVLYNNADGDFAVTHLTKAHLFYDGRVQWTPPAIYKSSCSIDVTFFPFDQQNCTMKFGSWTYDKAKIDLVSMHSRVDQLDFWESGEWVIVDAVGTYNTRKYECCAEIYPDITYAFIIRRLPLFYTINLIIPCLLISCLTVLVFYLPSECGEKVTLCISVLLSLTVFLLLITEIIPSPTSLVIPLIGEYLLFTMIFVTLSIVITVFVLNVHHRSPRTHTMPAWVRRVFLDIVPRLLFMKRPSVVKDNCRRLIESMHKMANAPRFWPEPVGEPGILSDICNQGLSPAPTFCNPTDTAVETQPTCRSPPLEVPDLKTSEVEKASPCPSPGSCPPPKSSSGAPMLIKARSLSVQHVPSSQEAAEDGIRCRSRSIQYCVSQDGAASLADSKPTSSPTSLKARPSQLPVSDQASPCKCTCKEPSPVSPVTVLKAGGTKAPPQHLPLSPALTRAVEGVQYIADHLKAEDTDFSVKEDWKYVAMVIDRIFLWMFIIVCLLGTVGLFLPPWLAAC
T1 sequence (P12390 25-500): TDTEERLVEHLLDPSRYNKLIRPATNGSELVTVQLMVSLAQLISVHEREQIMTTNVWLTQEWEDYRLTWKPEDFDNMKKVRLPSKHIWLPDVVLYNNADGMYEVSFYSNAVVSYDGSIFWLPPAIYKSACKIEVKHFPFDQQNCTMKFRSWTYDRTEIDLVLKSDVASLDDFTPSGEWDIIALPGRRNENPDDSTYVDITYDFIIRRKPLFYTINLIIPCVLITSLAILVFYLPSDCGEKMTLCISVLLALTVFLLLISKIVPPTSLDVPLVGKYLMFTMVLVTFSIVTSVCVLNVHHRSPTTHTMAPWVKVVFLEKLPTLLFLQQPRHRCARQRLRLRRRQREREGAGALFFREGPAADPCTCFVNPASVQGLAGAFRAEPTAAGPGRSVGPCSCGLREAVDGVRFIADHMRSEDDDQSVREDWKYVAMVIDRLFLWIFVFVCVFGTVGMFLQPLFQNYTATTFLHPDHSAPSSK
Text: The methods for evaluating the binding capabilities of the compounds at nicotinic acetylcholine receptors are different by subtypes of receptors. The binding capabilities of the compounds at α4β2 nicotinic acetylcholine receptors are examined using rat brain membrane obtained from whole homogenized brain, and determining the inhibiting rate of the compounds against [^3H]-cytisine binding to said brain membrane. Furthermore, the binding capabilities of the compounds at α1β1γδ nicotinic acetylcholine receptors are examined using homogenized rat muscle, and determining the inhibiting rate of the compounds against [^3H]-α-bungarotoxin binding to said muscle homogenate.
Binding Assays at α4β2 Subtype of Nicotinic Acetylcholine Receptors
(1) Preparation of Rat Brain Membrane Containing α4β2 Subtype of Nicotinic Acetylcholine Receptors
Rats were housed in the breeding cage controlled of the room temperature at 23±1° C., and the humidity of 55±5% for 1 to 4 weeks. Rats (3 to 4 rats per a cage) were housed with lights on for 12 hours daily (from 7:00 to 19:00), and allowed free access to food and water.
Preparation of rat brain membrane containing α4β2 subtype of nicotinic acetylcholine receptors was performed as follow. That is, rat brains were isolated just after sacrificed by decapitation, washed with ice-cooled saline solution and then frozen at −80° C. with liquid nitrogen and stored till using. After thawing the frozen brain, the brain was homogenized in 10 volumes of ice-cooled buffer solution (50 mM of Tris-HCl, 120 mM of NaCl, 5 mM of KCl, 1 mM of MgCl2, 2 mM of CaCl2; pH 7.4; 4° C.) using homogenizer (HG30, Hitachi Kohki Ltd.) for 30 seconds, and the homogenate were centrifuged under 1,000×G for 10 minutes at 4° C. The resulting supernatant was separated and the pellet was homogenized again with half volume of aforementioned prior buffer solution and centrifuged under the same conditions. Combined supernatant was further centrifuged under 40,000×G for 20 minutes at 4° C. The pellet was suspended in buffer solution and used for binding assays at receptors.
(2) Experiments of α4β2 Subtype of Nicotinic Acetylcholine Receptors Binding
Suspensions of membrane pellets containing 400-600 μg of protein were added to test tubes containing test compounds and [^3H]-cytisine (2 nM) in a final volume of 200 μl and incubated for 75 minutes in ice-cooled bath. The samples were isolated by vacuum filtration onto Whatman GF/B filters, which were prerinsed with 0.5% polyethylenimine just prior to sample filtration, using Brandel multi manifold cell harvester. The filters were rapidly washed with buffer solution (3×1 ml). The filters were counted in 3 ml of clearsol I (Nacalai Tesque Inc.).
The analyses of the experimental results were conducted by using the Accufit Competition Program (Beckman Ltd.).

Point of comparison: `Clc1ccc(C2=NCCCN2)cn1` [Compound 2, 2-(6-chloro-3-pyridyl)-1,4,5,6-tetrahydropyrimidine], Ki 13 nM. Against it:
- Clc1ncc(C2=NCCCN2)s1 [Compound 22, 2-(2-chloro-5-thiazolyl)-1,4,5,6-tetrahydropyrimidine] — 33-fold higher, 429 nM
- CN1CCN=C1c1ccc(Cl)nc1 [Compound 3, 2-(6-chloro-3-pyridyl)-1-methyl-2-imidazoline] — 3.5-fold higher, 45 nM
